{"source": "patent US20170368079A1", "about": "“ANTI-INFLAMMATORY AND ANTIDIABETIC AGENTS” (priority 2016, published 2017)", "origin": "cited, not measured here", "key": {"[1]": {"tested_on": "patients with type 2 diabetes"}, "[2]": {"tested_on": "glucocorticoid metabolism", "conditions": "mice; pattern differs between liver and subcutaneous adipose tissue"}, "[3]": {"tested_on": "glucocorticoid metabolism", "conditions": "humans; pattern differs between liver and subcutaneous adipose tissue"}, "[4]": {"conditions": "compared with placebo, in contrast to aspirin"}, "platelet aggregation": {"tested_on": "platelet aggregation", "conditions": "unlike aspirin"}, "prostaglandin synthesis": {"tested_on": "prostaglandin synthesis", "conditions": "in vivo; compared with aspirin and indomethacin"}}, "note": "Where two headings read alike, the source gives them in different places."}
{"molecule": "O=C(Oc1ccccc1C(=O)O)c1ccccc1O", "note": "[salsalate, 2-(2-hydroxybenzoyl)oxybenzoic acid]", "values": [{"measurement": "C-reactive protein", "setting": "[1]", "value": "lowers"}, {"measurement": "HbA1c levels", "setting": "[1]", "value": "lowers"}, {"measurement": "adiponectin concentrations", "setting": "[1]", "value": "increase"}, {"measurement": "blood glucose", "setting": "[1]", "value": "lowers"}, {"measurement": "circulating insulin", "setting": "[1]", "value": "increase"}, {"measurement": "free fatty acid", "setting": "[1]", "value": "lowers"}, {"measurement": "glucose utilization", "setting": "[1]", "value": "improve"}, {"measurement": "triglycerides", "setting": "[1]", "value": "lowers"}, {"measurement": "glucocorticoid metabolism", "setting": "[2]", "value": "alters glucocorticoid metabolism"}, {"measurement": "glucocorticoid metabolism", "setting": "[3]", "value": "alters glucocorticoid metabolism"}, {"measurement": "fecal gastrointestinal blood loss", "setting": "[4]", "value": "no greater fecal gastrointestinal blood loss than placebo"}, {"measurement": "inhibition of platelet aggregation", "setting": "platelet aggregation", "value": "does not inhibit platelet aggregation"}, {"measurement": "anti-inflammatory activity", "setting": "prostaglandin synthesis", "value": "equivalent to aspirin and indomethacin"}]}
